The text below walks through data of the NIST ThermoML archive (doi:10.1021/je200868y).

For this data set the following is noted: Liquid; for mass density: 298.15 K, 101.33 kPa, Vibrating tube method.

± gives the expanded uncertainty stated by the source.

Usually mass density stands for mass per unit of volume. As usually defined, the vapor or sublimation pressure is the pressure of vapour in equilibrium with the condensed phase. Consider `CCCCCC(=O)OCC` [ethyl hexanoate], for which the mass density is 865.59 ± 0.11 kg/m3. In addition, the “vapor or sublimation pressure” value (408.31 K) turned out to be 40 ± 1.5 kPa. The “vapor or sublimation pressure” value (417.74 K) was found to be 53.33 ± 2 kPa. For the same compound, the “vapor or sublimation pressure” value (425.39 K) was 66.66 ± 2.4 kPa. Moreover, under “431.86 K”, the “vapor or sublimation pressure” value was determined as 79.99 ± 2.8 kPa. The “vapor or sublimation pressure” value (437.53 K) is listed as 93.32 ± 3.2 kPa. Further, the “vapor or sublimation pressure” value (440.57 K) came to 101.3 ± 3.4 kPa.
In the case of `Cc1ccc(C)cc1` [1,4-dimethylbenzene], the mass density is 856.68 ± 0.12 kg/m3. Also, where the note is “379.81 K”, the “vapor or sublimation pressure” value is 40 ± 1.5 kPa. Further, the “vapor or sublimation pressure” value (388.96 K) is reported as 53.33 ± 2 kPa. In addition, where the note is “396.45 K”, the “vapor or sublimation pressure” value was found to be 66.66 ± 2.4 kPa. In addition, the “vapor or sublimation pressure” value (402.82 K) turned out to be 79.99 ± 2.8 kPa. Further, the “vapor or sublimation pressure” value (408.4 K) amounted to 93.32 ± 3.2 kPa. Further, the “vapor or sublimation pressure” value (411.48 K) is listed as 101.3 ± 3.4 kPa.
With `CCO` [ethanol], the mass density was determined as 785.18 ± 0.15 kg/m3. Further, the “vapor or sublimation pressure” value (329.69 K) worked out at 40 ± 1.5 kPa. Besides, under “336.07 K”, the “vapor or sublimation pressure” value is given as 53.33 ± 2 kPa. In addition, under “341.23 K”, the “vapor or sublimation pressure” value is recorded as 66.66 ± 2.4 kPa. The “vapor or sublimation pressure” value (345.6 K) came to 79.99 ± 2.8 kPa. Besides, the “vapor or sublimation pressure” value (349.39 K) was 93.32 ± 3.2 kPa. Further, under “351.44 K”, the “vapor or sublimation pressure” value is 101.3 ± 3.4 kPa.
